Legend:
DPPIV−/− knockout mice = test: LSEC engraftment/repopulation of irradiated liver by DPPIV staining (Examples 2 and 3); type: in vivo, mouse; details: targeted liver irradiation (50 Gy)
Protocol: 8-12-week-old male and female Di-peptyl peptidase IV (DPPIV) −/− knockout mice and 8-12-week-old male and female C57Bl6 mice were used in this study. Animals were weighed in the beginning of the experiment and before tissue collection. All animals were housed in the Institute for Animal Studies at Albert Einstein College of medicine and fed regular rodent chow. All experiments were performed to according to protocols approved by Institutional Animal Care and Use Committee at Albert Einstein College of Medicine. Animals were made cirrhotic using CCl4 administration (intraperitoneal [IP] injections twice a week for at least 11 weeks).
Image-guided external beam irradiation was performed using a small animal radiation research platform (SARRP, Xstrahl Inc., Suwanee, Ga.). Mice were given gastrografin contrast through gavage to improve visualization of the gastrointestinal (GI) tract. After approximately 2 minutes, mice were positioned on a tubular couch and anesthetized with ˜2% Isofluorane (Isothesia, USP) in 2 L/min pure oxygen. A cone-beam computed tomography (CBCT) scan was acquired and a treatment plan irradiating the median lobe and right lobe was generated using the MuriPlan software. […] Within the targeted lobes, the position of the isocenter was chosen to minimize irradiation of the GI tract, spine, and heart (the maximum dose to these organs was kept below 10 Gy). Targets were irradiated with 50 Gy X-rays at 220 kVp energy and 13 mA tube current (dose rate of 2.4-2.5 Gy/min) using a 1 mm copper filter for beam hardening.
TPOm was diluted in sterile PBS to a 10 mg/ml stock. The stock was stored at −20° C. and allowed to come to room temperature prior to administration. TPOm was administered as a single dose (300 μg/kg) via subcutaneous injection 10 minutes after the transplant procedure.
DPPIV was selected as a marker for engraftment of exogenous LSECs in the DPPIV (−/−) animals. […] Slide imaging was done using a Perkin Elmer P250 High Capacity Slide Scanner.
LSECs were isolated from the single-cell suspension using CD146 microbeads (Miltenyi Biotec GmbH #130-092-007).
Following isolation of LSECs, 500×10^5 LSECs are transplanted via intrasplenic injection into healthy adult mice anesthetized with Isoflurane (Isothesia, USP) 24 hrs post HIR. Buprenorphine is given post-op as an analgesic.
To test the efficacy of TPOm as an agent that can cause LSEC engraftment, DPPIV−/− knockout mice received 50GY hepatic irradiation (HIR) to the median and right lobes of the liver using external-beam CT-guided x-ray irradiation, and LSECs that express DPPIV (FIG. 2A).
The methods were identical to those described above with the exception that the LSEC transplant was administered 4-5 days post irradiation and the TPOm or Romiplostim were administered approximately 10 minutes post LSEC transplant.

DPPIV KO mice = test: Engraftment of transplanted LSECs and hepatocytes by DPPIV immunostaining after HIR (Example 7); type: in vivo, mouse; details: Study A; 2 months after HIR; 50 Gy; LSECs 4 or 5 days after HIR; 300 μg/kg intraperitoneally 10 minutes after LSEC transplantation
Protocol: 8-12-week-old male Di-peptyl peptidase IV knockout (Dppiv^−/−) mice and 8-12-week-old male C57BL/6 mice were used in this study.
The methods were identical to Experiment 5 as described above; including the preparation of test articles (solutions of RWJ-800088), isolation and transplant of LSECs, and Hepatic irradiation. In addition, Romiplostim was purchased from pharmacy and came in 250 μg powder. It was reconstituted per manufacturers description using solvent for solution for injection. After reconstitution, a deliverable volume of 0.5 mL solution contained 250 μg of romiplostim (500 μg/mL).
Animals were weighed in the beginning of the experiment.
The mice were transplanted with DPPIV^+ 5×10^5 liver sinusoidal endothelial cells (LSECs) intrasplenically 4 or 5 days later. The mice were then injected with 300 μg/kg of RWJ-800088 or Romiplostim intraperitoneally 10 minutes after LSEC transplantation as shown in Table 7.
The mice were then monitored until they made a full recovery and returned to the cage. The mice were followed for 2 and 5 months and necropsied. The liver was excised and prepared for the frozen section. The immunostaining of DPPIV activity was performed to examine the repopulation of the transplanted DPPIV^+ cells in the liver. […]

romiplostim [reference compound] was tested, and the “Engraftment when LSEC transplant is administered 24 hours post irradiation” value (DPPIV−/− knockout mice) was “Yes”, the “Engraftment when LSEC transplant is administered 4-5 days post irradiation” value (DPPIV−/− knockout mice; drug approximately 10 minutes post LSEC transplant) was “Yes” and the “repopulation of LSECs in the irradiated liver tissue (DPPIV immunostaining)” value (DPPIV KO mice) was “repopulation of LSECs in the irradiated liver tissue was observed”.

— patent publication US20200237871A1, “METHODS FOR MITIGATING LIVER INJURY AND PROMOTING LIVER HYPERTROPHY, REGENERATION AND CELL ENGRAFTMENT IN CONJUNCTION WITH RADIATION AND/OR RADIOMIMETIC TREATMENTS” (Janssen Pharmaceutica NV, priority 2019, published 2020)
